Results reported in EP1967187A1, “Composition based on rutin and L-lysine” (Ennamany, Rachid, priority 2007, dated 2008).

Biological target: T1, arginase Th2-dépendante (Homo sapiens, UniProt P05089)
T1 sequence (P05089 1-322): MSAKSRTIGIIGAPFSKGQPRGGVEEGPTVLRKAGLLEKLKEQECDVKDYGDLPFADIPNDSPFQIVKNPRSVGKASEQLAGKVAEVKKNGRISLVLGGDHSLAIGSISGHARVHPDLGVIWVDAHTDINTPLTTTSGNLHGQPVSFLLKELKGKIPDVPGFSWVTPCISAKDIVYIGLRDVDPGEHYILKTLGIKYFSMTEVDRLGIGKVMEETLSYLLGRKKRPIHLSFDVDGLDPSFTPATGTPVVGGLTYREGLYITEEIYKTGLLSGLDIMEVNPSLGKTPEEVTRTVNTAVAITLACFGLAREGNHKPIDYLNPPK
Test: Inhibition of Th2-dependent arginase
Assay type: biochemical

NCCCC[C@H](N)C(=O)O [L-Lysine, L-lysine]
action sur l'arginase Th2-dépendante: action inhibitrice
